≈ marks a conversion by molar mass, not a printed value.
How the values were obtained:
Assay in all cases: Heart Infusion Agar Dilution Method, antimicrobial activity
Format in all cases: cell-based
[1] = tested on: Pseudomonas aeruginosa #1
Source text: (§1) Heart Infusion Agar Dilution Method (pH 7.2) is used.
as §1

[2] = tested on: Pseudomonas putida 264; settings: pH 7.2, Example 6
Source text: (§2) Antimicrobial activities of the compound obtained in Example 1 are as follows. Heart Infusion Agar Dilution Method (pH 7.2) is used.
(§3) Antimicrobial activities of the compound obtained in Example 4 and 5 are as follows. Heart Infusion Agar Dilution Method (pH 7.2) is used. Cefazolin is used as a control.

[3] = tested on: Staphylococcus aureus Smith; settings: pH 7.2, Example 6
Source text: as §2, §3

[4] = tested on: Proteus morganii KY 4298; settings: Morganella morganii, KY4298, pH 7.2, Example 6
Source text: as §2, §3

[5] = tested on: Proteus rettgeri KY 4289; settings: Providencia rettgeri, KY4289; Proteus retteri KY 4289; pH 7.2; Example 6
Source text: as §2, §3

[6] = tested on: Staphylococcus aureus 209-P; settings: pH 7.2, Example 6
Source text: as §2, §3

[7] = tested on: Staphylococcus epidermidis; settings: pH 7.2, Example 6
Source text: as §2, §3

[8] = tested on: Proteus vulgaris 6897; settings: pH 7.2, Example 6
Source text: as §2, §3

[9] = tested on: Pseudomonas aeruginosa 145; settings: pH 7.2, Example 6
Source text: as §2, §3

[10] = tested on: Escherichia coli GN2411-5; settings: pH 7.2, Example 6
Source text: as §2, §3

[11] = tested on: Klebsiella pneumoniae Y-60; settings: Y60, pH 7.2, Example 6
Source text: as §1, §1

[12] = tested on: Proteus mirabilis 1287; settings: pH 7.2, Example 6
Source text: as §1, §1

[13] = tested on: Serratia marcescens T-55; settings: T55, pH 7.2, Example 6
Source text: as §1, §1

[14] = tested on: Escherichia coli NIHJC-2; settings: NIHJC2, pH 7.2, Example 6
Source text: as §1, §1

[15] = tested on: Serratia marcescens T-26; settings: T26, pH 7.2, Example 6
Source text: as §1, §1

[16] = tested on: Klebsiella pneumoniae 8045; settings: pH 7.2, Example 6
Source text: as §1, §1

[17] = tested on: Escherichia coli Juhl; settings: pH 7.2, Example 6
Source text: as §1, §1

SMILES | MIC ([1]; pH 7.2) [µg/mL] | MIC [2] [µg/mL] | MIC [3] [µg/mL] | MIC [4] [µg/mL] | MIC [5] [µg/mL] | MIC [6] [µg/mL] | MIC [7] [µg/mL] | MIC [8] [µg/mL] | MIC [9] [µg/mL] | MIC [10] [µg/mL] | MIC ([1]; pH 7.2, Example 6) [µg/mL] | MIC [11] [µg/mL] | MIC [12] [µg/mL] | MIC [13] [µg/mL] | MIC [14] [µg/mL] | MIC [15] [µg/mL] | MIC [16] [µg/mL] | MIC [17] [µg/mL]
CO/N=C(\C(=O)N[C@@H]1C(=O)N2C(C(=O)O)=C[C@@H](O)C[C@H]12)c1csc(N)n1 [A, (4S, 6R, 7S)-7-[2-(2-amino-4-thiazolyl)-2-syn-methoxyiminoacetamido]-4-hydroxy-1-azabicyclo[4,2,0] oct-2-en-8-on-2-carboxylic acid] | 0.73 (≈ 1.91 µM) |  |  |  |  |  |  |  |  |  |  |  |  |  |  |  |  | 
CC(C)(O/N=C(\C(=O)N[C@@H]1C(=O)N2C(C(=O)O)=C[C@@H](O)C[C@H]12)c1csc(N)n1)C(=O)O [Example 4, (4S, 6R, 7S)-7-[2-(2-amino-4-thiazolyl)-2-syn-(2-carboxyprop-2-oxyimino)acetamido]-4-hydroxy-1-azabicyclo[4,2,0]oct-2-en-8-on-2-carboxylic acid] |  | ≤ 0.01 | > 100 | 0.1 (≈ 0.221 µM) | ≤ 0.01 | > 100 | > 100 | ≤ 0.01 | 3.12 (≈ 6.88 µM) | 0.2 (≈ 0.441 µM) | 0.78 (≈ 1.72 µM) | 0.2 (≈ 0.441 µM) | 0.02 (≈ 0.0441 µM) | 0.4 (≈ 0.882 µM) | 0.78 (≈ 1.72 µM) | 0.78 (≈ 1.72 µM) | 0.2 (≈ 0.441 µM) | 0.4 (≈ 0.882 µM)
CO/N=C(\C(=O)N[C@@H]1C(=O)N2C(C(=O)O)=C[C@@H](O)C[C@H]12)c1nc(N)sc1Br [Example 5, (4S, 6R, 7S)-7-[2-(2-amino-5-bromo-4-thiazolyl)-2-syn-methoxyiminoacetamido]-4-hydroxy-1-azabicyclo[4,2,0]oct-2-en-8-on-2-carboxylic acid] |  | 0.2 (≈ 0.435 µM) | 50 (≈ 109 µM) | 1.56 (≈ 3.39 µM) | ≤ 0.01 | 50 (≈ 109 µM) | 100 (≈ 217 µM) | 0.2 (≈ 0.435 µM) | 25 (≈ 54.3 µM) | 0.78 (≈ 1.69 µM) |  | 1.56 (≈ 3.39 µM) | 1.56 (≈ 3.39 µM) |  | 3.12 (≈ 6.78 µM) |  | 0.78 (≈ 1.69 µM) | 3.12 (≈ 6.78 µM)
Cc1nnc(SCC2=C(C(=O)O)N3C(=O)[C@@H](NC(=O)Cn4cnnn4)[C@H]3SC2)s1 [Cefazolin, reference compound] |  | 50 (≈ 110 µM) | 0.2 (≈ 0.44 µM) |  | 12.5 (≈ 27.5 µM) | 0.05 (≈ 0.11 µM) |  | 50 (≈ 110 µM) |  |  |  |  |  |  |  |  |  | 

Reference: patent US4663450A, “Optically active cephalosporin analogs” (Kyowa Hakko Kogyo Co., Ltd., priority 1979, dated 1987)
